# PMC12528448, “Resistance to CDK7 inhibitors directed by acquired mutation of a conserved residue in cancer cells” (The EMBO Journal, 2025)
# Several values for one entry are separate records, joined by “and”; a condition that tells them apart may be missing. Equal entries are not always repeated.
# System: MCF7-CDK4^WT/D99N (CL4) cells
# Assay: IncuCyte confluency growth, heterozygous CDK4 D99N clone CL4
# Assay type: cell-based, human
# Experimental: To determine the IC50 of drug treatments on growth, cells were seeded in 96-well culture plates. Two days after seeding, the cells were treated with increasing concentrations of drugs and incubated for 4 days. Cell number was determined using the SRB assay (Skehan et al, [1990]), and IC50 values were calculated using non-linear regression curve fitting in GraphPad Prism v10. For all other growth experiments, cells were seeded into 96-well plates, and appropriate drugs were added 2 days after seeding. Cells were then incubated in an IncuCyte Zoom live-cell imager, with cell confluency measured every 6 h. Cell doubling times were determined by non-linear curve fitting (exponential growth equation) in GraphPad Prism v10.
# [1] = heterozygous mutant clone, 1 µM Palbociclib
smiles,measurement,setting,value
CC(=O)c1c(C)c2cnc(Nc3ccc(N4CCNCC4)cn3)nc2n(C2CCCC2)c1=O [Palbociclib],% Confluency,"MCF7 CDK4 WT/D99N CL4, 50nM Palbociclib, 0 Hours",5.85% and 7.14% and 7.68%
same,% Confluency,"MCF7 CDK4 WT/D99N CL4, 50nM Palbociclib, 12 Hours",8.21% and 10.76% and 12.27%
same,% Confluency,"MCF7 CDK4 WT/D99N CL4, 50nM Palbociclib, 24 Hours",10.88% and 13.85% and 15.74%
same,% Confluency,"MCF7 CDK4 WT/D99N CL4, 50nM Palbociclib, 36 Hours",13.80% and 16.38% and 19.05%
same,% Confluency,"MCF7 CDK4 WT/D99N CL4, 50nM Palbociclib, 48 Hours",17.70% and 21.33% and 24.63%
same,% Confluency,"MCF7 CDK4 WT/D99N CL4, 50nM Palbociclib, 60 Hours",22.48% and 27.81% and 30.42%
same,% Confluency,"MCF7 CDK4 WT/D99N CL4, 50nM Palbociclib, 72 Hours",27.76% and 35.03% and 37.64%
same,% Confluency,"MCF7 CDK4 WT/D99N CL4, 50nM Palbociclib, 84 Hours",35.06% and 44.68% and 46.96%
same,% Confluency,"MCF7 CDK4 WT/D99N CL4, 50nM Palbociclib, 96 Hours",44.30% and 55.86% and 62.70%
same,% Confluency,"MCF7 CDK4 WT/D99N CL4, 100nM Palbociclib, 0 Hours",5.03% and 8.02% and 6.57%
same,% Confluency,"MCF7 CDK4 WT/D99N CL4, 100nM Palbociclib, 12 Hours",7.75% and 11.69% and 10.17%
same,% Confluency,"MCF7 CDK4 WT/D99N CL4, 100nM Palbociclib, 24 Hours",10.36% and 14.93% and 13.32%
same,% Confluency,"MCF7 CDK4 WT/D99N CL4, 100nM Palbociclib, 36 Hours",12.94% and 17.97% and 15.30%
same,% Confluency,"MCF7 CDK4 WT/D99N CL4, 100nM Palbociclib, 48 Hours",16.50% and 23.21% and 19.26%
same,% Confluency,"MCF7 CDK4 WT/D99N CL4, 100nM Palbociclib, 60 Hours",21.25% and 30.29% and 23.70%
same,% Confluency,"MCF7 CDK4 WT/D99N CL4, 100nM Palbociclib, 72 Hours",26.21% and 37.68% and 29.57%
same,% Confluency,"MCF7 CDK4 WT/D99N CL4, 100nM Palbociclib, 84 Hours",33.66% and 47.41% and 37.94%
same,% Confluency,"MCF7 CDK4 WT/D99N CL4, 100nM Palbociclib, 96 Hours",41.77% and 57.37% and 52.38%
same,% Confluency,"MCF7 CDK4 WT/D99N CL4, 500nM Palbociclib, 0 Hours",4.80% and 7.59% and 7.67%
same,% Confluency,"MCF7 CDK4 WT/D99N CL4, 500nM Palbociclib, 12 Hours",7.05% and 11.14% and 11.17%
same,% Confluency,"MCF7 CDK4 WT/D99N CL4, 500nM Palbociclib, 24 Hours",9.22% and 14.33% and 14.28%
same,% Confluency,"MCF7 CDK4 WT/D99N CL4, 500nM Palbociclib, 36 Hours",10.74% and 17.40% and 16.58%
same,% Confluency,"MCF7 CDK4 WT/D99N CL4, 500nM Palbociclib, 48 Hours",12.63% and 21.45% and 19.54%
same,% Confluency,"MCF7 CDK4 WT/D99N CL4, 500nM Palbociclib, 60 Hours",15.04% and 27.04% and 23.43%
same,% Confluency,"MCF7 CDK4 WT/D99N CL4, 500nM Palbociclib, 72 Hours",17.72% and 33.02% and 27.35%
same,% Confluency,"MCF7 CDK4 WT/D99N CL4, 500nM Palbociclib, 84 Hours",21.21% and 40.89% and 33.24%
same,% Confluency,"MCF7 CDK4 WT/D99N CL4, 500nM Palbociclib, 96 Hours",25.51% and 49.34% and 42.77%
same,% Confluency,"MCF7 CDK4 WT/D99N CL4, 500nM Palbociclib, […] Hours",36.56%
same,% Confluency,"MCF7 CDK4 WT/D99N CL4, 1000nM Palbociclib, 0 Hours",4.12% and 6.61% and 6.57%
same,% Confluency,"MCF7 CDK4 WT/D99N CL4, 1000nM Palbociclib, 12 Hours",6.05% and 10.03% and 9.86%
same,% Confluency,"MCF7 CDK4 WT/D99N CL4, 1000nM Palbociclib, 24 Hours",7.59% and 12.47% and 13.02%
same,% Confluency,"MCF7 CDK4 WT/D99N CL4, 1000nM Palbociclib, 36 Hours",9.19% and 15.30% and 14.61%
same,% Confluency,"MCF7 CDK4 WT/D99N CL4, 1000nM Palbociclib, 48 Hours",10.50% and 18.34% and 17.08%
same,% Confluency,"MCF7 CDK4 WT/D99N CL4, 1000nM Palbociclib, 60 Hours",12.27% and 23.14% and 19.62%
same,Sensitivity of growth,heterozygous mutant clone vs MCF7,substantially less sensitive
same,Doubling time,[1],55.3 (95% CI = 43.9–71.7) h
same,Increase of doubling time vs vehicle,[1],twofold
